Assay results as given in ChEMBL document CHEMBL1134152, “Biological activity in human neutrophils of di-tripeptides, analogues of the chemotactic fMLP” (Bioorg Med Chem Lett, 2001).

Tests used:
[1] = Release of neutrophil granule enzymes was evaluated by determining lysozyme activity modified for microplate-based assays.
[2] = Chemotactic index (C.I.) which is the ratio: (migration toward test attractant minus migration toward the buffer)/(migration toward the buffer).; assay type: functional

Lysozyme release [1] [%]	Compound	Chemotactic index [2]
65	COC(=O)[C@H](Cc1ccccc1)NC(=O)[C@H](CC(=O)N[C@@H](CCSC)C(=O)N[C@@H](CC(C)C)C(=O)N[C@@H](Cc1ccccc1)C(=O)O)NC(=O)[C@H](CCSC)NC=O	0.5
70	COC(=O)[C@H](Cc1ccccc1)NC(=O)[C@H](CCCCNC(=O)N[C@@H](CCSC)C(=O)N[C@@H](CC(C)C)C(=O)N[C@@H](Cc1ccccc1)C(=O)O)NC(=O)[C@H](CCSC)NC=O	0.7
60	COC(=O)[C@H](Cc1ccccc1)NC(=O)[C@H](CC(C)C)NC(=O)[C@H](CCSC)NC=O	1
